# Source: ChEMBL document CHEMBL4130431, “Synthesis and Evaluation of Dolastatin 10 Analogues Containing Heteroatoms on the Amino Acid Side Chains” (2017)
# Activity calls are given as the source filed them. The rule behind the calls is not given here. Non-standard residues stand in square brackets, D forms with d. Residues, ends and D or L forms follow the SMILES beside them. *: point of attachment. Dolaproine = CO[C@@H]([C@@H]1CCCN1)[C@@H](C)C(=O)O; Abu(3S-N3) = C[C@H](N=[N+]=[N-])[C@H](N)C(=O)O; Dil = CC[C@H](C)[C@H](NC)[C@@H](CC(=O)O)OC; Abu(3S-NH2) = C[C@H](N)[C@H](N)C(=O)O; Dap(N3) = [N-]=[N+]=NC[C@H](N)C(=O)O; NMe2Val = CC(C)[C@@H](C(=O)*)N(C)C; Aha = [N-]=[N+]=NCC[C@H](N)C(=O)O; Pra = C#CC[C@H](N)C(=O)O; Dab = NCC[C@H](N)C(=O)O; Dap = NC[C@H](N)C(=O)O; NHtBu = CC(C)(C)N*; OtBu = CC(C)(C)O*
# Experiments:
# HCC1954 = test: Growth inhibition of human HCC1954 cells after 4 to 6 days by Presto blue assay; format: functional
# PC-3 = test: Growth inhibition of human PC3 cells after 4 to 6 days by Presto blue assay; format: functional
# Bos taurus = organism: Bos taurus; test: Inhibition of bovine brain tubulin polymerization at 10 uM after 60 mins by spectrophotometric method
SMILES,GI50 (HCC1954) [nM],GI50 (PC-3) [nM],inhibition (Bos taurus)
CC[C@H](C)[C@@H]([C@@H](CC(=O)N1CCC[C@H]1[C@H](OC)[C@@H](C)C(=O)N[C@@H](Cc1ccccc1)C(=O)O)OC)N(C)C(=O)[C@H](CO)NC(=O)[C@H](C(C)C)N(C)C (NMe2Val-S[Dil][Dolaproine]F-OH),4.4,19,
CC[C@H](C)[C@@H]([C@@H](CC(=O)N1CCC[C@H]1[C@H](OC)[C@@H](C)C(=O)N[C@@H](Cc1ccccc1)C(=O)NC(C)(C)C)OC)N(C)C(=O)[C@@H](NC(=O)[C@H](C(C)C)N(C)C)[C@H](C)N=[N+]=[N-] (NMe2Val-[Abu(3S-N3)][Dil][Dolaproine]F-NHtBu),0.4,1.2,
CC[C@H](C)[C@@H]([C@@H](CC(=O)N1CCC[C@H]1[C@H](OC)[C@@H](C)C(=O)NCCc1ccc(Cl)cc1)OC)N(C)C(=O)[C@@H](NC(=O)[C@H](C(C)C)N(C)C)[C@H](C)N=[N+]=[N-],33,40,
CC[C@H](C)[C@@H]([C@@H](CC(=O)N1CCC[C@H]1[C@H](OC)[C@@H](C)C(=O)NCCc1ccccc1)OC)N(C)C(=O)[C@@H](NC(=O)[C@H](C(C)C)N(C)C)[C@H](C)N=[N+]=[N-],3.1,4.7,
CC[C@H](C)[C@@H]([C@@H](CC(=O)N1CCC[C@H]1[C@H](OC)[C@@H](C)C(=O)N[C@@H](Cc1ccccc1)c1nnn[nH]1)OC)N(C)C(=O)[C@@H](NC(=O)[C@H](C(C)C)N(C)C)[C@H](C)N=[N+]=[N-],27,41,Active
CC[C@H](C)[C@@H]([C@@H](CC(=O)N1CCC[C@H]1[C@H](OC)[C@@H](C)C(=O)N[C@H](C)[C@@H](O)c1ccccc1)OC)N(C)C(=O)[C@@H](NC(=O)[C@H](C(C)C)N(C)C)[C@H](C)N=[N+]=[N-],34,50,
CC[C@H](C)[C@@H]([C@@H](CC(=O)N1CCC[C@H]1[C@H](OC)[C@@H](C)C(=O)NCCc1ccccc1Cl)OC)N(C)C(=O)[C@@H](NC(=O)[C@H](C(C)C)N(C)C)[C@H](C)N=[N+]=[N-],13,34,
CC[C@H](C)[C@@H]([C@@H](CC(=O)N1CCC[C@H]1[C@H](OC)[C@@H](C)C(=O)NCCc1ccccn1)OC)N(C)C(=O)[C@@H](NC(=O)[C@H](C(C)C)N(C)C)[C@@H](C)O,21,,
CC[C@H](C)[C@@H]([C@@H](CC(=O)N1CCC[C@H]1[C@H](OC)[C@@H](C)C(=O)NCCc1ccccn1)OC)N(C)C(=O)[C@H](CO)NC(=O)[C@H](C(C)C)N(C)C,> 1000,> 1000,
CC[C@H](C)[C@@H]([C@@H](CC(=O)N1CCC[C@H]1[C@H](OC)[C@@H](C)C(=O)NCCc1ccccn1)OC)N(C)C(=O)[C@@H](NC(=O)[C@H](C(C)C)N(C)C)[C@H](C)N=[N+]=[N-],3.7,5.1,
CC[C@H](C)[C@@H]([C@@H](CC(=O)N1CCC[C@H]1[C@H](OC)[C@@H](C)C(=O)N[C@@H](Cc1ccccc1)c1nccs1)OC)N(C)C(=O)[C@@H](NC(=O)[C@H](C(C)C)N(C)C)[C@H](C)N=[N+]=[N-],18,33,Active

# The remaining lines, values ahead:
GI50 (HCC1954) [nM],GI50 (PC-3) [nM],inhibition (Bos taurus),SMILES
3.5,5,,CC[C@H](C)[C@@H]([C@@H](CC(=O)N1CCC[C@H]1[C@H](OC)[C@@H](C)C(=O)N[C@@H](Cc1ccccc1)C(=O)O)OC)N(C)C(=O)[C@@H](NC(=O)[C@H](C(C)C)N(C)C)[C@@H](C)O (NMe2Val-T[Dil][Dolaproine]F-OH)
3.5,20,,CC[C@H](C)[C@@H]([C@@H](CC(=O)N1CCC[C@H]1[C@H](OC)[C@@H](C)C(=O)N[C@@H](Cc1ccccc1)C(=O)OC)OC)N(C)C(=O)[C@H](CN)NC(=O)[C@H](C(C)C)N(C)C (NMe2Val-[Dap][Dil][Dolaproine]F-OMe)
> 1000,> 1000,,CC[C@H](C)[C@@H]([C@@H](CC(=O)N1CCC[C@H]1[C@H](OC)[C@@H](C)C(=O)N[C@@H](Cc1ccccc1)C(=O)OC)OC)N(C)C(=O)[C@H](CCN)NC(=O)[C@H](C(C)C)N(C)C (NMe2Val-[Dab][Dil][Dolaproine]F-OMe)
0.041,0.093,,CC[C@H](C)[C@@H]([C@@H](CC(=O)N1CCC[C@H]1[C@H](OC)[C@@H](C)C(=O)N[C@@H](Cc1ccccc1)C(=O)OC)OC)N(C)C(=O)[C@@H](NC(=O)[C@H](C(C)C)N(C)C)[C@H](C)N=[N+]=[N-] (NMe2Val-[Abu(3S-N3)][Dil][Dolaproine]F-OMe)
2.5,11,,CC[C@H](C)[C@@H]([C@@H](CC(=O)N1CCC[C@H]1[C@H](OC)[C@@H](C)C(=O)N[C@@H](Cc1ccccc1)C(=O)O)OC)N(C)C(=O)[C@@H](NC(=O)[C@H](C(C)C)N(C)C)[C@H](C)N (NMe2Val-[Abu(3S-NH2)][Dil][Dolaproine]F-OH)
3.2,3.8,,CC[C@H](C)[C@@H]([C@@H](CC(=O)N1CCC[C@H]1[C@H](OC)[C@@H](C)C(=O)N[C@@H](Cc1ccccc1)C(=O)OC)OC)N(C)C(=O)[C@H](CS)NC(=O)[C@H](C(C)C)N(C)C (NMe2Val-C[Dil][Dolaproine]F-OMe)
0.16,0.36,,C#CC[C@H](NC(=O)[C@H](C(C)C)N(C)C)C(=O)N(C)[C@@H]([C@@H](C)CC)[C@@H](CC(=O)N1CCC[C@H]1[C@H](OC)[C@@H](C)C(=O)N[C@@H](Cc1ccccc1)C(=O)OC)OC (NMe2Val-[Pra][Dil][Dolaproine]F-OMe)
0.43,1.1,,CC[C@H](C)[C@@H]([C@@H](CC(=O)N1CCC[C@H]1[C@H](OC)[C@@H](C)C(=O)N[C@@H](Cc1ccccc1)C(=O)OC)OC)N(C)C(=O)[C@H](CCN=[N+]=[N-])NC(=O)[C@H](C(C)C)N(C)C (NMe2Val-[Aha][Dil][Dolaproine]F-OMe)
340,,,CC[C@H](C)[C@@H]([C@@H](CC(=O)N1CCC[C@H]1[C@H](OC)[C@@H](C)C(=O)N[C@@H](Cc1ccccc1)C(=O)OC)OC)N(C)C(=O)[C@H](CCCCN)NC(=O)[C@H](C(C)C)N(C)C (NMe2Val-K[Dil][Dolaproine]F-OMe)
> 1000,> 1000,,CC[C@H](C)[C@@H]([C@@H](CC(=O)N1CCC[C@H]1[C@H](OC)[C@@H](C)C(=O)N[C@@H](Cc1ccccc1)C(=O)O)OC)N(C)C(=O)[C@@H](NC(=O)[C@H](C(C)C)N(C)C)[C@H](C)N=[N+]=[N-] (NMe2Val-[Abu(3S-N3)][Dil][Dolaproine]F-OH)
0.16,0.38,,CC[C@H](C)[C@@H]([C@@H](CC(=O)N1CCC[C@H]1[C@H](OC)[C@@H](C)C(=O)N[C@@H](Cc1ccccc1)C(=O)OC)OC)N(C)C(=O)[C@@H](NC(=O)[C@H](C(C)C)N(C)C)[C@@H](C)O (NMe2Val-T[Dil][Dolaproine]F-OMe)
0.34,1.2,,CC[C@H](C)[C@@H]([C@@H](CC(=O)N1CCC[C@H]1[C@H](OC)[C@@H](C)C(=O)N[C@@H](Cc1ccccc1)C(=O)OC)OC)N(C)C(=O)[C@H](CO)NC(=O)[C@H](C(C)C)N(C)C (NMe2Val-S[Dil][Dolaproine]F-OMe)
0.4,1.7,,CC[C@H](C)[C@@H]([C@@H](CC(=O)N1CCC[C@H]1[C@H](OC)[C@@H](C)C(=O)N[C@@H](Cc1ccccc1)C(N)=O)OC)N(C)C(=O)[C@@H](NC(=O)[C@H](C(C)C)N(C)C)[C@H](C)N=[N+]=[N-] (NMe2Val-[Abu(3S-N3)][Dil][Dolaproine]F-NH2)
0.036,0.11,,CC[C@H](C)[C@@H]([C@@H](CC(=O)N1CCC[C@H]1[C@H](OC)[C@@H](C)C(=O)N[C@@H](Cc1ccccc1)C(=O)OC)OC)N(C)C(=O)[C@H](CN=[N+]=[N-])NC(=O)[C@H](C(C)C)N(C)C (NMe2Val-[Dap(N3)][Dil][Dolaproine]F-OMe)
> 1000,610,,CC[C@H](C)[C@@H]([C@@H](CC(=O)N1CCC[C@H]1[C@H](OC)[C@@H](C)C(=O)N[C@@H](Cc1ccccc1)C(=O)OC)OC)N(C)C(=O)[C@H](CC(=O)O)NC(=O)[C@H](C(C)C)N(C)C (NMe2Val-D[Dil][Dolaproine]F-OMe)
0.089,0.045,,CC[C@H](C)[C@@H]([C@@H](CC(=O)N1CCC[C@H]1[C@H](OC)[C@@H](C)C(=O)N[C@@H](Cc1ccccc1)C(=O)OC(C)(C)C)OC)N(C)C(=O)[C@@H](NC(=O)[C@H](C(C)C)N(C)C)[C@H](C)N=[N+]=[N-] (NMe2Val-[Abu(3S-N3)][Dil][Dolaproine]F-OtBu)
0.076,0.54,,CC[C@H](C)[C@@H]([C@@H](CC(=O)N1CCC[C@H]1[C@H](OC)[C@@H](C)C(=O)N[C@@H](Cc1ccccc1)C(=O)OC)OC)N(C)C(=O)[C@@H](NC(=O)[C@H](C(C)C)N(C)C)[C@H](C)N (NMe2Val-[Abu(3S-NH2)][Dil][Dolaproine]F-OMe)
